Structures can show the parent of a compound that is named as a salt.
Columns and labels:
[1] = target: T1, human JAK3 kinase domain (JH1) (Homo sapiens, UniProt P52333); assay: JH1 biochemical assay for JAK3 (ADP-Glo kinase assay, recombinant JH1 catalytic domain, JAK3-974 peptide, 4 μM ATP)
T1 construct: recombinantly generated catalytic kinase (also known as JH1) domain of human JAK1, JAK2, JAK3 and TYK2
Procedure, shortened: (§1)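 Reactions contain 50 μM peptide and run 100 minutes, with enzyme at 4, 0.2, 0.3 and 2 nM for JAK1, JAK2, JAK3 and TYK2. Generated ADP is read by luminescence; IC50 derives from normalized dose-response curves.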

[2] = target: Tyk2 kinase activity on STAT4 in NK92 cells (Homo sapiens, UniProt P29597); assay: pSTAT4 cell assay (MSD; NK92 cells, 30 ng/mL IL2 stimulation); type: cell-based; settings: 30 ng/mL IL2, 15 minutes
Sequence of Tyk2 kinase activity on STAT4 in NK92 cells (P29597 whole entry): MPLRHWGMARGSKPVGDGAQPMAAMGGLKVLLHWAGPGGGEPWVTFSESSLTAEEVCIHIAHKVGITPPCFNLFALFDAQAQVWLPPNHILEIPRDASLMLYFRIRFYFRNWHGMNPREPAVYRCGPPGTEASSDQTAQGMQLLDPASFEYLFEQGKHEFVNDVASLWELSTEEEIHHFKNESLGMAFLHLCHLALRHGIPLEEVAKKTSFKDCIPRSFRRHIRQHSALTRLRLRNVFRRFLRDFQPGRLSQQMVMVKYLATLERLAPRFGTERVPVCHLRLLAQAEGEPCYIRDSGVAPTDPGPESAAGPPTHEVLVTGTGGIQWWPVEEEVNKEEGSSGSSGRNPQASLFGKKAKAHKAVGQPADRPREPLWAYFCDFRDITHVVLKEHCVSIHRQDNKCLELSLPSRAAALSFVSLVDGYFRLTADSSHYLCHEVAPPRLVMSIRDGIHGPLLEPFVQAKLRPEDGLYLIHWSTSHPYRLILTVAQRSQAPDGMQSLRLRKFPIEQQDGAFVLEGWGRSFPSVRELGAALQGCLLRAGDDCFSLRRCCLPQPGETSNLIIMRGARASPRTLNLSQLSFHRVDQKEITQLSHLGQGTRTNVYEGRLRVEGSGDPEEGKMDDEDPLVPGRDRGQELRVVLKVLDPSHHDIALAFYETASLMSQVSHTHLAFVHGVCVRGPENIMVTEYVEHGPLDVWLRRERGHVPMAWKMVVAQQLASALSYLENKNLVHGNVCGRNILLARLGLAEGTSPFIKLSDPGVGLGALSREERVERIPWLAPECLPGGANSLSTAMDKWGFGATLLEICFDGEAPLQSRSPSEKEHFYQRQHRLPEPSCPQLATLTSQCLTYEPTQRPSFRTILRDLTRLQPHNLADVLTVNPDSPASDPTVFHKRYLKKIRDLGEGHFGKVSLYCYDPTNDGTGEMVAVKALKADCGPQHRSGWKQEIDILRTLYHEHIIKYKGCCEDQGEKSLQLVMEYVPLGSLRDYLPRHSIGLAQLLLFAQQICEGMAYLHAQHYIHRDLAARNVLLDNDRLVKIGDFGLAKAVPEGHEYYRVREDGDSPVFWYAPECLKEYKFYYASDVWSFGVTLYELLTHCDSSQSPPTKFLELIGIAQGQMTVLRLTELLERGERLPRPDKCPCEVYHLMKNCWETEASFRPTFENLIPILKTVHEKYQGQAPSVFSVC
Method: The inhibitory potency of compounds of the disclosure against the Tyk2 kinase activity on STAT4 was evaluated using an MSD-platform plate-based assay format. NK92 cells natively expressing STAT4 and Tyk2 were serum-starved to reduce background phosphorylation levels, then cells were treated compounds for 1 hr with a 10-point four-fold dilution series starting at 10 μM. Cells were then stimulated with 30 ng/mL IL2 for 15 minutes. Cells were lysed and […] levels were quantitated using an MSD plate-based assay with anti-STAT4 antibodies. The data were normalized and the percent activity versus log concentration of compound were fitted with a 4-parameter logistic model to generate to generate IC50 curves.

[3] = target: T2, human JAK2 kinase domain (JH1) (Homo sapiens, UniProt O60674); assay: JH1 biochemical assay for JAK2 (ADP-Glo kinase assay, recombinant JH1 catalytic domain, JAK3-974 peptide, 15 μM ATP)
T2 construct: recombinantly generated catalytic kinase (also known as JH1) domain of human JAK1, JAK2, JAK3 and TYK2
T2 sequence (O60674 849-1124 limits assumed): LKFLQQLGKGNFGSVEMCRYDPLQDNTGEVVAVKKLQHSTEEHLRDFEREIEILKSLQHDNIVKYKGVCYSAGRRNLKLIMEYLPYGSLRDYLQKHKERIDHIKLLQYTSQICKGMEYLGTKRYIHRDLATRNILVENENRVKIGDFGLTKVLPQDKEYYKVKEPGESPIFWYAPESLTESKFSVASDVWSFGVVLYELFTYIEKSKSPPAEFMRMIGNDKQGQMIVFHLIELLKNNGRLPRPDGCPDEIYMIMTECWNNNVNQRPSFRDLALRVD
Procedure, shortened: as §1

[4] = target: T3, human TYK2 kinase domain (JH1) (Homo sapiens, UniProt P29597); assay: JH1 biochemical assay for TYK2 (ADP-Glo kinase assay, recombinant JH1 catalytic domain, JAK3-974 peptide, 10 μM ATP)
T3 construct: recombinantly generated catalytic kinase (also known as JH1) domain of human JAK1, JAK2, JAK3 and TYK2
T3 sequence (P29597 897-1176 limits assumed): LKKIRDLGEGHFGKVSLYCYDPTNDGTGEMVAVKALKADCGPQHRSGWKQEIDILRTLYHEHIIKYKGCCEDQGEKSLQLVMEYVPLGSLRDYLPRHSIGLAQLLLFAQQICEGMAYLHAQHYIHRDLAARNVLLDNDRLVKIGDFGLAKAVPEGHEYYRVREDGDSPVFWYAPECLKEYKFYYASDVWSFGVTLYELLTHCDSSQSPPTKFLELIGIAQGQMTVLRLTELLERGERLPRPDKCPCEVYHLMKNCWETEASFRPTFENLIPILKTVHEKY
Procedure, shortened: as §1

[5] = target: JAK1 kinase activity on STAT3 in TF1 cells (Homo sapiens, UniProt P23458); assay: pSTAT3 cell assay (MSD; TF1 cells, 30 ng/mL IL-6 stimulation); type: cell-based; settings: 30 ng/mL IL-6, 15 minutes
Sequence of JAK1 kinase activity on STAT3 in TF1 cells (P23458 whole entry): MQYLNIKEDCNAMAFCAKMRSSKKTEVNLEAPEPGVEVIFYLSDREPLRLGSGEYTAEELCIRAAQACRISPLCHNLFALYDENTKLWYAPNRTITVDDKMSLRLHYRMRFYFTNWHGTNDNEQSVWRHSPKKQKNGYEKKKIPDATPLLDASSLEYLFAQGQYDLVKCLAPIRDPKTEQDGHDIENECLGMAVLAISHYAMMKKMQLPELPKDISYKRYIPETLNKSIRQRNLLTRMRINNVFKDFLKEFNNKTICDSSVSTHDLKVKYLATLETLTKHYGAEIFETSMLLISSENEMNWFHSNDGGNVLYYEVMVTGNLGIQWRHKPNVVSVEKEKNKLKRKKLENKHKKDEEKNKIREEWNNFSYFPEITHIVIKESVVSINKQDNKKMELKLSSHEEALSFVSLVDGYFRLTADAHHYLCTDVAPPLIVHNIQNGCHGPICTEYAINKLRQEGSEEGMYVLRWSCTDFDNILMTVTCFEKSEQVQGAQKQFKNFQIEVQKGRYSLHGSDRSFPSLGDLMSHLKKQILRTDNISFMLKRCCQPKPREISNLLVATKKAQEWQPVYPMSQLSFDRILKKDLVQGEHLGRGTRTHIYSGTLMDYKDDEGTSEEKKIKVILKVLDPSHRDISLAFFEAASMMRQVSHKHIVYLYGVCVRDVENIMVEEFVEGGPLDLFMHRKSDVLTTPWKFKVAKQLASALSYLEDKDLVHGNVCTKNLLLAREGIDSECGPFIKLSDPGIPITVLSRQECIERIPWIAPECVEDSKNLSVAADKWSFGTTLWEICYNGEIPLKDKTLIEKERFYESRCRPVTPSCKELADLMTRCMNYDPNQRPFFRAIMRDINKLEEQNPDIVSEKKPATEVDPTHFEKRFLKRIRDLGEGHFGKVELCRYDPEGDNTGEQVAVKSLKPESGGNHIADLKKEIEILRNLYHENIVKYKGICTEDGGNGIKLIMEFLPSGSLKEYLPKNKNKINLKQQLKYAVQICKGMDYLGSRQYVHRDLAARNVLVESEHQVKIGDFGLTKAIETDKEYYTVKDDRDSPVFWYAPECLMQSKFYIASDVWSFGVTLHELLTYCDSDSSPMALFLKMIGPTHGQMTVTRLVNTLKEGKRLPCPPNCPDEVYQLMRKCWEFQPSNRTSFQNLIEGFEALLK
Method: The inhibitory potency of compounds of the disclosure against the JAK1 kinase activity on STAT3 was evaluated using an MSD-platform plate-based assay format. TF1 cells natively expressing STAT3 and JAK1 were serum-starved to reduce background phosphorylation levels, then cells were treated with compounds of the disclosure for 1 hour with a 10-point four-fold dilution series starting at 10 μM. Cells were then stimulated with 30 ng/mL interleukin 6 (IL-6) for 15 minutes. Cells were lysed and pSTAT3 levels were quantitated using an MSD plate-based assay with anti-STAT3 antibodies. The data were normalized and the percent activity versus log concentration of compound was fitted with a 4-parameter logistic model to generate IC50 curves.

[6] = target: JAK2 kinase activity on STAT5 in TF1 cells (Homo sapiens, UniProt O60674); assay: pSTAT5 cell assay (MSD; TF1 cells, 30 ng/mL IL-3 stimulation); type: cell-based; settings: 30 ng/mL IL-3, 15 minutes
Sequence of JAK2 kinase activity on STAT5 in TF1 cells (O60674 whole entry): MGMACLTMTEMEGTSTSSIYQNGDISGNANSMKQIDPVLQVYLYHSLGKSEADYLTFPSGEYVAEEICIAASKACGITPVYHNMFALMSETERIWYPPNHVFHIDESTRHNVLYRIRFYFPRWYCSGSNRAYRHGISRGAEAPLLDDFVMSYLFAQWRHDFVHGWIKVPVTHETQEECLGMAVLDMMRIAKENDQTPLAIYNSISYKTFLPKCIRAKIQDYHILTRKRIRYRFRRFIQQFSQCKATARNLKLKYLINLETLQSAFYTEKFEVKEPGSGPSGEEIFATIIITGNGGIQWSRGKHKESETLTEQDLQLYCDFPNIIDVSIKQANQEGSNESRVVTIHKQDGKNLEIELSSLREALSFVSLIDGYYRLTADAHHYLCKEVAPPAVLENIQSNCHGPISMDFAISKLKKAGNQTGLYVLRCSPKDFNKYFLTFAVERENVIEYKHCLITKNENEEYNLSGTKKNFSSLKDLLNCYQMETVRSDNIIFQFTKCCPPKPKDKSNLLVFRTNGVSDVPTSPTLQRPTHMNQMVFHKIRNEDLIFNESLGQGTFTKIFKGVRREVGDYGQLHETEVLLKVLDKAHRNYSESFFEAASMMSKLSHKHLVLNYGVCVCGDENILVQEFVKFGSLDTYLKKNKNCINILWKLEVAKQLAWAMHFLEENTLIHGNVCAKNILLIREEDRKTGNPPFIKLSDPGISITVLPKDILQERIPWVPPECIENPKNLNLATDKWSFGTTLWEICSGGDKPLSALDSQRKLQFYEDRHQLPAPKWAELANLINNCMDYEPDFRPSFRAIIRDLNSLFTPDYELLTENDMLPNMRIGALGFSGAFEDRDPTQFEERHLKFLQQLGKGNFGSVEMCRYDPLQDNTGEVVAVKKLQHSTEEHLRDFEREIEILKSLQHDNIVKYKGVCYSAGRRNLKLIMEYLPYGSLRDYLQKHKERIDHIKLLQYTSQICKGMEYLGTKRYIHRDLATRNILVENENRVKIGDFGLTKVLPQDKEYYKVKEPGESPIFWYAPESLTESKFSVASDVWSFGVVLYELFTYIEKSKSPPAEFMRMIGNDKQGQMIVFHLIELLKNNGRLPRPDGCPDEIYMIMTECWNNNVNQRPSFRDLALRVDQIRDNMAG
Method: The inhibitory potency of compounds of the disclosure against the JAK2 kinase activity on STAT5 was evaluated using an MSD-platform plate-based assay format. TF1 cells natively expressing STAT5 and JAK2 were serum-starved to reduce background phosphorylation levels, then cells were treated with compounds of disclosure for 1 hour with a 10-point four-fold dilution series starting at 10 μM. Cells were then stimulated with 30 ng/mL IL-3 for 15 minutes. Cells were then lysed and pSTAT5 levels were quantitated using an MSD plate-based assay with anti-STAT5 antibodies. The data were normalized and the percent activity versus log concentration of compound was fitted with a 4-parameter logistic model to generate a curve and an IC50 value.

[7] = target: T4, human JAK1 kinase domain (JH1) (Homo sapiens, UniProt P23458); assay: JH1 biochemical assay for JAK1 (ADP-Glo kinase assay, recombinant JH1 catalytic domain, JAK3-342 peptide, 35 μM ATP)
T4 construct: recombinantly generated catalytic kinase (also known as JH1) domain of human JAK1, JAK2, JAK3 and TYK2
T4 sequence (P23458 875-1153 limits assumed): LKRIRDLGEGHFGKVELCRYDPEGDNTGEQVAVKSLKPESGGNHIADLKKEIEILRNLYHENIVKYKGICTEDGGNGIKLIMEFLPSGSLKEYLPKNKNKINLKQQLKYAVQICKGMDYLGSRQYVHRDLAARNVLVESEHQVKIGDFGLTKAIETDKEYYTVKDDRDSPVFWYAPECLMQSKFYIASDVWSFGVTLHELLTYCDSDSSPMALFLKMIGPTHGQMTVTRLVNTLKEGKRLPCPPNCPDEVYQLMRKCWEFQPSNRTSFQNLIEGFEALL
Procedure, shortened: as §1

T1 sequence (P52333 822-1111 limits assumed): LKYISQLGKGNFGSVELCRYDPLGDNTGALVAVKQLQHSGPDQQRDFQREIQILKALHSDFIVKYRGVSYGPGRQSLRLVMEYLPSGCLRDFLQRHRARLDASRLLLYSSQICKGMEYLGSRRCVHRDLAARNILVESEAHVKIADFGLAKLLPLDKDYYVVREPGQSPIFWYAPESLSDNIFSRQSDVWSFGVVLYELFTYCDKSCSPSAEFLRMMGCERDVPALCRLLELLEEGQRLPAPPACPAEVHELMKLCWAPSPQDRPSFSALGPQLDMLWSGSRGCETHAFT

| SMILES | IC50 ([1]; JH1 kinase domain, ADP-Glo) [nM] | IC50 [2] [nM] | IC50 ([3]; JH1 kinase domain, ADP-Glo) [nM] | IC50 ([4]; JH1 kinase domain, ADP-Glo) [nM] | IC50 [5] [nM] | IC50 [6] [nM] | IC50 ([7]; JH1 kinase domain, ADP-Glo) [nM] | IC50 ([1]; JAK3 JH1, ADP-Glo) [nM] | IC50 ([3]; JAK2 JH1, ADP-Glo) [nM] | IC50 ([4]; TYK2 JH1, ADP-Glo) [nM] | IC50 ([7]; JAK1 JH1, ADP-Glo) [nM] |
| --- | --- | --- | --- | --- | --- | --- | --- | --- | --- | --- | --- |
| C[C@@H]1CN(c2ncnn3cc(-c4cnn(C)c4)cc23)C(=O)[C@]1(C#N)C1CC1 [Example 180, (3R,4S)-3-cyclopropyl-4-methyl-1-(6-(1-methyl-1H-pyrazol-4-yl)pyrrolo[2,1-f][1,2,4]triazin-4-yl)-2-oxopyrrolidine-3-carbonitrile] | > 10000 | > 100 | 5000 to 10000 | > 100 | 1000 to 5000 | 5000 to 10000 | > 10000 | – | – | – | – |
| C[C@@H]1CN(c2nc(-c3cnc4[nH]ccc4c3)cn3nccc23)C(=O)[C@]1(C#N)C1CC1 [Example 230, (3R,4S)-1-(6-(1H-pyrrolo[2,3-b]pyridin-5-yl)pyrazolo[1,5-a]pyrazin-4-yl)-3-cyclopropyl-4-methyl-2-oxopyrrolidine-3-carbonitrile] | – | 5 to 20 | – | – | 100 to 1000 | 1000 to 5000 | – | < 100 | 100 to 1000 | < 5 | < 100 |
| C[C@@H]1CN(c2ccnn3cc(-c4cnn(CC#N)c4)cc23)C(=O)[C@]1(C#N)C1CC1 [Example 168, (3R,4S)-1-(6-(1-(cyanomethyl)-1H-pyrazol-4-yl)pyrrolo[1,2-b]pyridazin-4-yl)-3-cyclopropyl-4-methyl-2-oxopyrrolidine-3-carbonitrile] | < 100 | 50 to 100 | < 100 | < 5 | 1000 to 5000 | 1000 to 5000 | < 100 | – | – | – | – |
| COc1cc(-c2cc3c(N4CC[C@@](C#N)(C5CC5)C4=O)ccnn3c2)ccn1 [Example 8, (S)-3-cyclopropyl-1-(6-(2-methoxypyridin-4-yl)pyrrolo[1,2-b]pyridazin-4-yl)-2-oxopyrrolidine-3-carbonitrile] | 100 to 1000 | > 100 | 100 to 1000 | 5 to 20 | 1000 to 5000 | 1000 to 5000 | 100 to 1000 | – | – | – | – |
| C[C@@H]1CN(c2ccnn3cc(-c4ccc(=O)n(C)c4)cc23)C(=O)[C@]1(C#N)C1CC1 [Example 83, (3R,4S)-3-cyclopropyl-4-methyl-1-(6-(1-methyl-6-oxo-1,6-dihydropyridin-3-yl)pyrrolo[1,2-b]pyridazin-4-yl)-2-oxopyrrolidine-3-carbonitrile] | 100 to 1000 | 50 to 100 | 100 to 1000 | < 5 | 1000 to 5000 | 5000 to 10000 | < 100 | – | – | – | – |
| C[C@@H]1CN(c2nc(-c3cnc4c(c3)CCC(=O)N4)cn3nccc23)C(=O)[C@]1(C#N)C1CC1 [Example 204, (3R,4S)-3-cyclopropyl-4-methyl-2-oxo-1-(6-(7-oxo-5,6,7,8-tetrahydro-1,8-naphthyridin-3-yl)pyrazolo[1,5-a]pyrazin-4-yl)pyrrolidine-3-carbonitrile] | < 100 | 50 to 100 | < 100 | < 5 | 1000 to 5000 | 1000 to 5000 | < 100 | – | – | – | – |
| C[C@@H]1CN(c2nc(-c3cnn(-c4ccncc4)c3)cn3nccc23)C(=O)[C@]1(C#N)C1CC1 [Example 295, (3R,4S)-3-cyclopropyl-4-methyl-2-oxo-1-(6-(1-(pyridin-4-yl)-1H-pyrazol-4-yl)pyrazolo[1,5-a]pyrazin-4-yl)pyrrolidine-3-carbonitrile] | – | 20 to 50 | – | – | 100 to 1000 | 100 to 1000 | – | < 100 | < 100 | < 5 | < 100 |
| C[C@@H]1CN(c2ccnn3cc(-c4cnn([C@@H]5CC5(F)F)c4)cc23)C(=O)[C@]1(C#N)C1CC1 (single isomer, unassigned) [Example 155] | 100 to 1000 | 50 to 100 | 100 to 1000 | < 5 | 1000 to 5000 | 1000 to 5000 | < 100 | – | – | – | – |
| C[C@@H]1CN(c2cc(-c3cnn(C4COC4)c3)cc3ncsc23)C(=O)[C@]1(C#N)C1CC1 [Example 348, (3R,4S)-3-cyclopropyl-4-methyl-1-(5-(1-(oxetan-3-yl)-1H-pyrazol-4-yl)benzo[d]thiazol-7-yl)-2-oxopyrrolidine-3-carbonitrile] | – | 50 to 100 | – | – | 100 to 1000 | 100 to 1000 | – | < 100 | < 100 | < 5 | < 100 |
| C[C@@H]1CN(c2ccnn3cc(-c4cnn(C(F)F)c4)cc23)C(=O)[C@]1(C#N)C1CC1 [Example 35, (3R,4S)-3-cyclopropyl-1-(6-(1-(difluoromethyl)-1H-pyrazol-4-yl)pyrrolo[1,2-b]pyridazin-4-yl)-4-methyl-2-oxopyrrolidine-3-carbonitrile] | 100 to 1000 | 20 to 50 | 100 to 1000 | < 5 | 1000 to 5000 | 5000 to 10000 | 100 to 1000 | – | – | – | – |
| Cc1ncc(-c2cn3nccc3c(N3C[C@@H](C)[C@@](C#N)(C4CC4)C3=O)n2)s1 [Example 239, (3R,4S)-3-cyclopropyl-4-methyl-1-(6-(2-methylthiazol-5-yl)pyrazolo[1,5-a]pyrazin-4-yl)-2-oxopyrrolidine-3-carbonitrile] | – | 50 to 100 | – | – | 100 to 1000 | 1000 to 5000 | – | < 100 | 100 to 1000 | < 5 | < 100 |
| CC(=O)Nc1cccc(-c2cc3c(N4C[C@@H](C)[C@@](C#N)(C5CC5)C4=O)ccnn3c2)n1 [Example 131, N-(6-(4-((3R,4S)-3-cyano-3-cyclopropyl-4-methyl-2-oxopyrrolidin-1-yl)pyrrolo[1,2-b]pyridazin-6-yl)pyridin-2-yl)acetamide trifluoroacetate] | 100 to 1000 | 50 to 100 | 100 to 1000 | < 5 | 100 to 1000 | 1000 to 5000 | < 100 | – | – | – | – |
| C[C@@H]1CN(c2ccnn3cc(-c4cnn(C5CCOC5)c4)cc23)C(=O)[C@]1(C#N)C1CC1 (stereo partly drawn) [Example 162, (3R,4S)-3-cyclopropyl-4-methyl-2-oxo-1-(6-(1-(tetrahydrofuran-3-yl)-1H-pyrazol-4-yl)pyrrolo[1,2-b]pyridazin-4-yl)pyrrolidine-3-carbonitrile] | < 100 | 20 to 50 | < 100 | < 5 | 1000 to 5000 | 1000 to 5000 | < 100 | – | – | – | – |
| C[C@@H]1CN(c2ccnn3cc(-c4cc[nH]n4)cc23)C(=O)[C@]1(C#N)C1CC1 [Example 66, (3R,4S)-1-(6-(1H-pyrazol-3-yl)pyrrolo[1,2-b]pyridazin-4-yl)-3-cyclopropyl-4-methyl-2-oxopyrrolidine-3-carbonitrile trifluoroacetate] | 100 to 1000 | > 100 | 100 to 1000 | 5 to 20 | 5000 to 10000 | > 10000 | 100 to 1000 | – | – | – | – |
| C[C@@H]1CN(c2nc(-c3cnn(CC4COC4)c3)cn3ncc(F)c23)C(=O)[C@]1(C#N)C1CC1 [Example 304, (3R,4S)-3-cyclopropyl-1-(3-fluoro-6-(1-(oxetan-3-ylmethyl)-1H-pyrazol-4-yl)pyrazolo[1,5-a]pyrazin-4-yl)-4-methyl-2-oxopyrrolidine-3-carbonitrile] | – | 50 to 100 | – | – | 100 to 1000 | 1000 to 5000 | – | < 100 | < 100 | < 5 | < 100 |

Reference: patent publication US20260297085A1, “1 H-PYRROLO[2,3-B]PYRIDIN-4-YL]-2-OXOPYRROLIDINE-3-CARBONITRILE DERIVATIVES AS TYROSINE KINASE 2 (TYK2) INHIBITORS FOR THE TREATMENT OF INFLAMMATORY DISEASES” (BIOGEN MA INC., priority 2023, published 2026)
